Measured values published in paper PMC4965013, “Open Source Drug Discovery with the Malaria Box Compound Collection for Neglected Diseases and Beyond” (PLoS Pathogens, 2016).
pEC50: −log10 of the molar value. Where two headings read alike, the source gives them in different places.

What was measured:
[1] = system: Onchocerca lienalis microfilariae; test: Onchocerca lienalis microfilariae motility; assay type: cell-based; details: 12.5µM
Description: Column DW: Townson group (data presented first in this paper). Screening of Onchocerca lienalis microfilariae for motility inhibition in microplates. Methods: Microfilariae are obtained from samples of peri-umbilical skin of freshly slaughtered, naturally infected cattle in the UK. […] The results are then calculated as motility index scores and expressed as a percentage of the maximum obtainable. […] Merial) were immotile at the end of the trial.

[2] = Mouse oral PK single dose; assay type: in vivo; details: male, CD-1, mouse, plasma, 140 umol/kg; 140 μmol/kg oral
Description: Columns GD-GJ: Wuxi Inc. data for MMV (data presented first in this paper) PK/DMPK Parameters: Fasted animals (Male CD-1 mouse, 7-9 weeks age, 30±10 g, n=3) obtained from an approved vendor (SLAC Laboratory Animal Co. Ltd., Shanghai, China or Sino-British SIPPR/BK Laboratory Animal Co. Ltd Shanghai, China) were administered with a single oral dose (140 μmol/kg) using DMSO: 1% HPMC (5:95) as a vehicle. Blood sampling was performed via the submandibular or saphenous vein (t=0.083, 0.25, 1, 2, 4, 6 and 9 h) and transferred into microcentrifuge tubes containing Sodium Heparin (1,000 IU/ml) as anti-coagulant placed on wet ice until processed for plasma by centrifugation at approximately 4°C, 3000×g for 15 min. Plasma samples were stored in polypropylene tubes, quick frozen over dry ice and kept at -70±10°C until LC/MS/MS analysis. LC/MS/MS methods for the quantitative determination compounds plasma levels were developed with an internal standard. […] (Phoenix WinNonlin, version 6.2.1, Pharsight, Mountain View, CA) and expressed as Cmax & AUC0-last. […] AUC0-last is the area under the curve expressed as >12 h*μM (Yes or No). Plasma protein binding assay (PPB) (CD-1 mouse and human) expressed as <95% bound, >95% bound, or >99% bound. Kinetic Solubility at pH 7.4 was determined by liquid chromatography/chemiluminescence nitrogen detection (LC/CLND) and was scored as greater than 20µM (Yes or No). hERG inhibition was measured at 11µM by the QPatch- HT system and is expressed as “Yes” if greater than 45% inhibited at 11µM and “No” if less than or equal to 45% inhibited at 11µM. As part of the Drug-Drug Interaction studies (DDI issues), 5 human and 1 mouse CYP isoforms (1A2, 2C9, 2C19, 2D6, 3A4-M, 3A4-T) were tested for inhibition assay at 10 µM. […] Otherwise DDI issues were scored as “No”. Positive and negative controls were run for each assay (Table 1).

[3] = system: P. falciparum NF54 gametocytes; set-up: method as in ref [72] (a number printed in a supplementary file, which may have a reference list of its own: not looked up in the article's list); details: 10µM; ref [72]; cited from earlier work
[4] = system: P. falciparum NF54Pfs16 gametocytes stage IV-V; details: 5µM; ref [62]; cited from earlier work
[5] = system: primary human hepatocytes; test: MPCC hepatotoxicity (albumin, urea, morphology); assay type: cell-based; details: 10µM
T. cruzi Tulahuen = details: ref [84]; read-out: Trypanosoma cruzi Tulahuen intracellular amastigotes in MRC5 cell line EC50; cited from earlier work
P. falciparum 3D7 or K1 = test: Asexual Blood Stage Imaging Assay (DAPI) V. Avery; assay type: cell-based; details: Plasmodium falciparum; 5µM; read-out: P. falciparum 3D7 asexual blood stage % inhibition (Image)
[6] = system: Leishmania donovani axenic amastigotes; test: L. donovani axenic amastigotes Scynexis; assay type: cell-based
[7] = system: HIV-1 JR-FL or HIV-1 NL4-3 pseudoviruses; test: HIV-1 pseudovirus infection luciferase; assay type: cell-based
Description: Columns FK-GB, Moore group (data presented first in this paper). HIV and HIV-producing cell lines, toxicity and viral suppression. […] MMV compounds were incubated with HIV-1 JR-FL or HIV-1 NL4-3 pseudoviruses and U87-CD4-CCR5 or U87-CD4-CXCR4 cells (obtained through the NIH AIDS Reagent Program, Division of AIDS, NIAID, NIH: U87 CD4+CCR5+ Cells from Dr. HongKui Deng and Dr. Dan R. Littman) respectively for 3 days. Cells were assayed for infection by luciferase production (Bright-Glo Luciferase Substrate, Promega) and cell viability by MTT assay. […] MMV compounds were next incubated with HIV-1 JR-FL or HIV-1 NL4-3 viruses and U87-CD4-CCR5 or U87-CD4-CXCR4 cells respectively for 7 days. Cell supernatants were assayed for viral production by p24 ELISA [153] and cell viability by MTT assay. […] DMSO (5%) was completely toxic to all cells (based on visual inspection) and served as the positive control for MTT assays.

PfPMT = PfPMT (Plasmodium falciparum, UniProt Q8IDQ9); test: PfPMT gene replacement yeast growth
Chain of PfPMT (Q8IDQ9 whole entry): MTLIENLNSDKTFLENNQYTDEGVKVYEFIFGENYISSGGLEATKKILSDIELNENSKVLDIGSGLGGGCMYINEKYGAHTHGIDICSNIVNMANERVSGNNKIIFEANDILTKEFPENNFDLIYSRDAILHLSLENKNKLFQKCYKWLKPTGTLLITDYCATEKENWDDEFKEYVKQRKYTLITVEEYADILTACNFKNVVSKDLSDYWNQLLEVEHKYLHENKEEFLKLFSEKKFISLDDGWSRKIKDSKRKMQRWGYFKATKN

[8] = system: P. falciparum NF54 gametocytes stage IV/V; test: Gametocyte PrestoBlue resazurin assay Mancama; assay type: cell-based; details: Plasmodium falciparum, NF54; 5µM; read-out: NF54 gametocyte Late Stage IV/V Resazurin %inhibition
P. falciparum Dd2 = P. falciparum Dd2 asexual blood stages Scynexis; assay type: cell-based; details: Plasmodium falciparum
[9] = system: Schistosoma mansoni schistosomula (somules); test: S. mansoni somules phenotypic screen Caffrey
[10] = system: Mycobacterium tuberculosis mc26220 non-replicating; test: microbe, parasite or virus in culture; assay type: cell-based
[11] = system: S. mansoni newly transformed schistosomula (NTS); set-up: method as in ref [91] (a number printed in a supplementary file, which may have a reference list of its own: not looked up in the article's list); details: ref [91]; read-out: Schistosoma mansoni newly transformed schistosomula EC50 J. Keiser; cited from earlier work
[12] = system: P. falciparum NF54 late-stage gametocytes; details: 5 µM; ref [55]; cited from earlier work
Brugia malayi = Brugia malayi Scynexis; assay type: cell-based; details: 10µM
Description: Supplement ppat.1005763.s002.xlsx, sheet "S1 Table Heat Map" | column: Brugia malayi 5d % dead at 10µM Scynexis

[13] = Human immunodeficiency virus 1, NL43, read-out: HIV JRFL % inhibition rep1 in U87 Luc
[14] = Human immunodeficiency virus 1, NL43, read-out: HIV JRFL % inhibition rep2 in U87 Luc
[15] = Human immunodeficiency virus 1, NL43, read-out: HIV NL4-3 % inhibition rep1 in U87 Luc
[16] = read-out: % Inhibition in PfPMT gene replacement yeast, no added choline
[17] = read-out: % Inhibition in PfPMT gene replacement yeast, with added choline

## CCOC(=O)c1cnc2ccc(OC)cc2c1NCc1ccccc1 [MMV665813]
[1]
  Onchocerca lienalis % motility: 100%
[2]
  AUC: < 12 µM·h
  Cmax: < 1000 nM
[3]
  gametocyte stage IV-V SYBR Green % inhibition: 61%
[4]
  gametocyte late stage (IV-V) luciferase % inhibition: 5.69%
[5]
  Human hepatocyte Urea synthesis, 1.0 normal: 0.81
  Human hepatocyte albumin synthesis, 1.0 normal: 0.93
T. cruzi Tulahuen
  pEC50: 4.89
P. falciparum 3D7 or K1
  inhibition at 5 µM: 97%
[6]
  inhibition at 5 µM: 52%
[7]; [13]
  inhibition at 5 µM: -33%
[7]; [14]
  inhibition at 5 µM: -10%
[7]; [15]
  inhibition at 5 µM: -135%
PfPMT; [16]
  inhibition at 100 µM: 0%
PfPMT; [17]
  inhibition at 100 µM: 0%
[8]
  inhibition at 5 µM: 0%
P. falciparum Dd2
  inhibition at 10 µM: 55%
[9]; 24 h at 2.5µM
  S. mansoni newly transformed schistosomula, visual tox scale, 0 = none, 4=most damaged: 1
[9]; 72 h at 2.5µM
  S. mansoni newly transformed schistosomula, visual tox scale, 0 = none, 4=most damaged: 1
[10]
  inhibition at 25 µM: 23%
[11]
  pEC50: < 4.48
[12]
  gametocyte NF54 late stage (IV-V) % inhibition Cassera: 36%
Brugia malayi
  Brugia malayi 5d % dead: 12%

## CCN(CC)c1cc(C)c2cc(NC(=O)c3cccc(OC)c3)ccc2n1 [MMV000498]
[1]
  Onchocerca lienalis % motility: 100%
[2]
  AUC: > 12 µM·h
  Cmax: > 1000 nM
[3]
  gametocyte stage IV-V SYBR Green % inhibition: 60%
[4]
  gametocyte late stage (IV-V) luciferase % inhibition: -3.24%
[5]
  Human hepatocyte Urea synthesis, 1.0 normal: 0.65
  Human hepatocyte albumin synthesis, 1.0 normal: 0.57
T. cruzi Tulahuen
  pEC50: 4.86
P. falciparum 3D7 or K1
  inhibition at 5 µM: 97%
[6]
  inhibition at 5 µM: -65%
[7]; [13]
  inhibition at 5 µM: -9%
[7]; [14]
  inhibition at 5 µM: 52%
[7]; [15]
  inhibition at 5 µM: 15%
PfPMT; [16]
  inhibition at 100 µM: 16%
PfPMT; [17]
  inhibition at 100 µM: 0%
[8]
  inhibition at 5 µM: 70%
P. falciparum Dd2
  inhibition at 10 µM: 8%
[9]; 24 h at 2.5µM
  S. mansoni newly transformed schistosomula, visual tox scale, 0 = none, 4=most damaged: 2
[9]; 72 h at 2.5µM
  S. mansoni newly transformed schistosomula, visual tox scale, 0 = none, 4=most damaged: 0
[10]
  inhibition at 25 µM: 20%
[11]
  pEC50: < 4.48
[12]
  gametocyte NF54 late stage (IV-V) % inhibition Cassera: 47%
Brugia malayi
  Brugia malayi 5d % dead: 13%

## CCN1CCN(c2cc(C)c3cc(NC(=O)c4ccc(OC)c(OC)c4)ccc3n2)CC1 [MMV019074]
[1]
  Onchocerca lienalis % motility: 100%
[2]
  AUC: < 12 µM·h
  Cmax: > 1000 nM
[3]
  gametocyte stage IV-V SYBR Green % inhibition: 47%
[4]
  gametocyte late stage (IV-V) luciferase % inhibition: -9%
[5]
  Human hepatocyte Urea synthesis, 1.0 normal: 0.58
  Human hepatocyte albumin synthesis, 1.0 normal: 0.51
T. cruzi Tulahuen
  pEC50: 5.18
P. falciparum 3D7 or K1
  inhibition at 5 µM: 99%
[6]
  inhibition at 5 µM: -34%
[7]; [13]
  inhibition at 5 µM: 11%
[7]; [14]
  inhibition at 5 µM: -62%
[7]; [15]
  inhibition at 5 µM: 13%
PfPMT; [16]
  inhibition at 100 µM: 0%
PfPMT; [17]
  inhibition at 100 µM: 0%
[8]
  inhibition at 5 µM: 64%
P. falciparum Dd2
  inhibition at 10 µM: 80%
[9]; 24 h at 2.5µM
  S. mansoni newly transformed schistosomula, visual tox scale, 0 = none, 4=most damaged: 1
[9]; 72 h at 2.5µM
  S. mansoni newly transformed schistosomula, visual tox scale, 0 = none, 4=most damaged: 0
[10]
  inhibition at 25 µM: 13%
[11]
  pEC50: < 4.48
[12]
  gametocyte NF54 late stage (IV-V) % inhibition Cassera: 27%
Brugia malayi
  Brugia malayi 5d % dead: -2%

## COc1ccc(C(=O)Nc2ccc3nc(N4CCCCC4)cc(C)c3c2)cc1OC [MMV019758]
[1]
  Onchocerca lienalis % motility: 100%
[2]
  AUC: > 12 µM·h
  Cmax: > 1000 nM
[3]
  gametocyte stage IV-V SYBR Green % inhibition: 49%
[5]
  Human hepatocyte Urea synthesis, 1.0 normal: 0.66
  Human hepatocyte albumin synthesis, 1.0 normal: 0.58
T. cruzi Tulahuen
  pEC50: 4.84
P. falciparum 3D7 or K1
  inhibition at 5 µM: 76%
[6]
  inhibition at 5 µM: -50%
[7]; [13]
  inhibition at 5 µM: 4.56%
[7]; [14]
  inhibition at 5 µM: -50%
[7]; [15]
  inhibition at 5 µM: 7%
PfPMT; [16]
  inhibition at 100 µM: 0%
PfPMT; [17]
  inhibition at 100 µM: 0%
[8]
  inhibition at 5 µM: 18%
P. falciparum Dd2
  inhibition at 10 µM: 36%
[9]; 24 h at 2.5µM
  S. mansoni newly transformed schistosomula, visual tox scale, 0 = none, 4=most damaged: 0
[9]; 72 h at 2.5µM
  S. mansoni newly transformed schistosomula, visual tox scale, 0 = none, 4=most damaged: 0
[10]
  inhibition at 25 µM: 24%
[11]
  pEC50: < 4.48
[12]
  gametocyte NF54 late stage (IV-V) % inhibition Cassera: 56%
Brugia malayi
  Brugia malayi 5d % dead: 9%

## COc1cc2cc(C(=O)Nc3ccccc3)c(N)nc2cc1OC [MMV006767]
[1]
  Onchocerca lienalis % motility: 100%
[2]
  AUC: > 12 µM·h
  Cmax: > 1000 nM
[3]
  gametocyte stage IV-V SYBR Green % inhibition: 60%
[4]
  gametocyte late stage (IV-V) luciferase % inhibition: 2%
[5]
  Human hepatocyte Urea synthesis, 1.0 normal: 1.00
  Human hepatocyte albumin synthesis, 1.0 normal: 0.82
P. falciparum 3D7 or K1
  inhibition at 5 µM: 99%
[6]
  inhibition at 5 µM: -49%
[7]; [13]
  inhibition at 5 µM: 93%
[7]; [14]
  inhibition at 5 µM: 64%
[7]; [15]
  inhibition at 5 µM: 96%
PfPMT; [16]
  inhibition at 100 µM: 0%
PfPMT; [17]
  inhibition at 100 µM: 0%
[8]
  inhibition at 5 µM: 0%
P. falciparum Dd2
  inhibition at 10 µM: 40%
[9]; 24 h at 2.5µM
  S. mansoni newly transformed schistosomula, visual tox scale, 0 = none, 4=most damaged: 0
[9]; 72 h at 2.5µM
  S. mansoni newly transformed schistosomula, visual tox scale, 0 = none, 4=most damaged: 2
[10]
  inhibition at 25 µM: 1.39%
[11]
  pEC50: < 4.48
[12]
  gametocyte NF54 late stage (IV-V) % inhibition Cassera: 7%
Brugia malayi
  Brugia malayi 5d % dead: 18%
